The subject of data set [1] is clonidine-induced aggressive behavior. The data set is described as follows: Effect on Clonidine-Induced Aggressive Behavior (number of biting attacks during 30 minutes). The class given is in vivo, male ddY mice. To be noted: po; for Number of the Biting Attacks (mean ± S.E.M.), Test Compound-Treated Group: 60 min before clonidine 20 mg/kg ip, 30 min count. The protocol: The effect of a test compound on the aggressive behavior induced by intraperitoneal administration of clonidine was investigated. […] The experiment was performed by using several groups of male ddY mice (weighing 20 to 25 g, Japan SLC), each group consisting of two mice. The test compound was suspended in injectable distilled water (Otsuka Pharmaceutical Co., Ltd.) containing Tween 80 [polyoxyethylene (20) sorbitan monooleate]. Clonidine hydrochloride (Sigma Co.) was dissolved in physiological saline solution (Otsuka Pharmaceutical Co., Ltd.). The test compound suspension and the control suspension were orally administered to separate groups of the mice (0.1 ml per 10 g of body weight). Sixty minutes after the oral administration of the test compound, clonidine hydrochloride (20 mg/kg) was intraperitoneally injected. The number of biting attacks during 30 minutes after clonidine treatment was counted. The effect of the compound was evaluated by comparing the average number of biting attacks of the test compound-administered groups with that of control groups (Statistical comparison: Student's t-test).

The test system of another data set is ddY-strain male mice. The data set is described as follows: Acute Toxicity Test (minimum lethal dose, oral). The class given is in vivo. To be noted: seven days after administration. The protocol:
Test compounds were orally administered to groups of ddY-strain male mice weighing 20±1 g, each group consisting of three mice. Seven days after the administration, minimum lethal dose (MLD) of each compound was determined by observing the mortality.

[2] abbreviates: Mus musculus, 10 mg/kg, read-out: Number of the Attacks of Test Compound-Treated Group/Number of the Attacks of Control Group.

Turning to `CCn1c(=O)c2c(nc(/C=C/c3ccc(OC)c(C)c3C)n2C)n(CC)c1=O` [Compound 82, (E)-1,3-Diethyl-8-(4-methoxy-2,3-dimethylstyryl)-7-methylxanthine], the “Number of the Biting Attacks (mean ± S.E.M.), Test Compound-Treated Group” value (“Number of the Biting Attacks” below) is listed as 59.0 ± 13.31 in data set [1] (2.5 mg/kg) and 61.8 ± 11.89 in data set [1] (10 mg/kg). In addition, the response vs control in vivo at 2.5 mg/kg in data set [1] (Mus musculus, read-out: Number of the Attacks of Test Compound-Treated Group/Number of the Attacks of Control Group) came to 910%. Also, the response vs control in vivo at 10 mg/kg in data set [1] (setting [2]) is 800%. Besides, the “MLD (minimum lethal dose)” value with ddY-strain male mice is above 300 mg/kg.

Consider `CCCCOc1ccc(/C=C/c2nc3c(c(=O)n(CC)c(=O)n3CC)n2C)cc1` [Compound 148, (E)-8-(4-Butoxystyryl)-1,3-diethyl-7-methylxanthine], for which the “Number of the Biting Attacks” value in data set [1] (10 mg/kg) came out at 46.3 ± 9.40. In addition, the “MLD (minimum lethal dose)” value in the data set on ddY-strain male mice was above 100 mg/kg.

Consider `CCn1c(=O)c2c(nc(/C=C/c3ccc(OC)cc3OC)n2C)n(CC)c1=O` [Compound 78, (E)-8-(2,4-Dimethoxystyryl)-1,3-diethyl-7-methylxanthine], for which the “Number of the Biting Attacks” value in data set [1] (10 mg/kg) was determined as 32.1 ± 7.31. Also, the response vs control in vivo at 10 mg/kg in data set [1] (setting [2]) turned out to be 610%. For the same molecule, the “MLD (minimum lethal dose)” value with ddY-strain male mice is above 300 mg/kg.
